Laboratory results taken from patent US8680159B2, “Bradykinin 1 receptor modulating compounds” (Gruenenthal GmbH, priority 2010, dated 2014).

Molecular target: T1, B1R receptor of the rat (CHO K1 cells stably transfected with the B1R gene of the rat) (Rattus norvegicus, UniProt P97583)
T1 construct: expressed in transfected cells; host or cells: CHO K1 cells (Chinese hamster ovary), stably transfected
T1 sequence (P97583 1-337): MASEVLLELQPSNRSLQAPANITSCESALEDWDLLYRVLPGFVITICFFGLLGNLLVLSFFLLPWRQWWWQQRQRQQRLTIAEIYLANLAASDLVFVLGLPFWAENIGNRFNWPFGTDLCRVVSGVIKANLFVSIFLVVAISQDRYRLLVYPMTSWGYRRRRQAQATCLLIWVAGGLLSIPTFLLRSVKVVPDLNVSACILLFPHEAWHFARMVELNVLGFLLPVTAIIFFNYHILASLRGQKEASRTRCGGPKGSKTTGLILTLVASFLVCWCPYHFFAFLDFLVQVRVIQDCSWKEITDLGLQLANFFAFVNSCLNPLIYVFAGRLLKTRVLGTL
Test: Functional study on the bradykinin receptor 1 (B1R), Ca2+ fluorescence (Fluo-4) FLIPR/Novostar assay, rB1R cells
Type: cell-based
Details: CHO-K1, 10 μM, read-out: % Inhibition (r-B1R) at 10 μM
Experimental: The agonistic or antagonistic action of substances can be quantified on the bradykinin receptor 1 (B1R) of the species human and rat using ectopically expressing cell lines (CHO K1 cells) and with the aid of a Ca^2+-sensitive dye (Fluo-4) using a fluorescent imaging plate reader (FLIPR). The indication in % activation is based on the Ca^2+ signal after addition of Lys-Des-Arg^9-bradykinin (0.5 nM) or Des-Arg^9-bradykinin (100 nM). Antagonists lead to suppression of the Ca^2+ influx after the addition of the agonist. % Inhibition compared with the maximum achievable inhibition is indicated.
The agonistic or antagonistic action of substances can be determined on the bradykinin receptor 1 (B1R) of the species human and rat using the following assay. According to this assay, the increase in intracellular Ca^2+ following administration of a B1R agonist is quantified with the aid of a Ca^2+-sensitive dye (Fluo-4 type, Molecular Probes Europe BV, Leiden, Netherlands) using a Fluorescent Imaging Plate Reader (FLIPR, Molecular Devices, Sunnyvale, USA) and/or using a Novostar (BMG Labtech GmbH, Offenburg, Germany).
Chinese hamster ovary cells (CHO K1 cells) which have been stably transfected with the human B1R gene (hB1R cells) or with the B1R gene of the rat (rB1R cells) are used. For functional studies, the cells are plated out on black 96-well plates having a clear base (BD Biosciences, Heidelberg, Germany or Greiner, Frickenhausen, Germany) in a density of 20,000-35,000 cells/well. The cells are left overnight at 37° C. and with 5% CO2 in culture medium (hB1R cells: Nutrient Mixture Ham's F12, Gibco Invitrogen GmbH, Karlsruhe, Germany or DMEM, Sigma-Aldrich, Taufkirchen, Germany; rB1R cells: D-MEM/F12, Gibco Invitrogen GmbH, Karlsruhe, Germany), with 10 vol. % FBS (fetal bovine serum, Gibco Invitrogen GmbH, Karlsruhe, Germany or PAN Biotech GmbH, Aidenbach, Germany). On the following day, the cells are loaded for 60 minutes at 37° C. with 2.13 μM Fluo-4 (Molecular Probes Europe BV, Leiden, Netherlands) in HBSS buffer (Hank's buffered saline solution, Gibco Invitrogen GmbH, Karlsruhe, Germany) […] (Sigma-Aldrich, Taufkirchen, Germany) and 10 mM HEPES (Sigma-Aldrich, Taufkirchen, Germany). The plates are then washed twice with HBSS buffer, and HBSS buffer additionally containing 0.1% BSA (bovine serum albumin; Sigma-Aldrich, Taufkirchen, Germany), 5.6 mM glucose and 0.05% gelatin (Merck KGaA, Darmstadt, Germany) is added to the plates. After incubation for a further 20 minutes at room temperature, the plates are inserted into the FLIPR or Novostar for Ca^2+ measurement. Alternatively, washing is carried out with buffer A (15 mM HEPES, 80 mM NaCl, 5 mM KCl, 1.2 mM CaCl2, 0.7 mM MgSO4, 2 g/l glucose, 2.5 mM probenecid) followed by loading with buffer A with added 2.5 μM Fluo-4 and 0.025% Pluronic F127 (Sigma-Aldrich, Taufkirchen, Germany). The cells are then washed twice with buffer A and incubated for 30 minutes at room temperature with buffer A additionally containing 0.05% BSA and 0.05% gelatin and are then inserted into the FLIPR or Novostar for Ca^2+ measurement. The Ca^2+-dependent fluorescence is measured before and after the addition of substances (λex=488 nm, λem=540 nm). Quantification is carried out by measuring the highest fluorescence intensity (FC, fluorescence counts) over time.
The FLIPR protocol consists of 2 substance additions, which are pipetted in the FLIPR. In the case of measurements using the Novostar, only the second substance addition is pipetted in the device. Both devices measure the fluorescence intensity over time. Test substances (10 μM) are first pipetted onto the cells and the intracellular Ca^2+ increase is compared with the control (hB1R: Lys-Des-Arg^9-bradykinin>=50 nM; rB1R: Des-Arg^9-bradykinin>=1 μM). This gives the % activation, based on the Ca^2+ signal after addition of Lys-Des-Arg^9-bradykinin (>=50 nM) or Des-Arg^9-bradykinin (>=1 μM). […]

inhibition at 10 µM [%] | Compound
111 | CN(C(=O)c1ccc2c(c1)C(NC(=O)c1cc(F)ccc1Cl)CC2)C1CCN(c2ccncc2)CC1 (stereo not drawn) [CC_H-200, 3-[(2-Chloro-5-fluoro-benzoyl)amino]-N-methyl-N-(1-pyridin-4-yl-piperidin-4-yl)-2,3-dihydro-1H-indene-5-carboxylic acid amide]
111 | CN(C(=O)c1ccc2c(c1)C(NC(=O)c1cc(C(F)(F)F)ccc1Cl)CC2)C1CCN(c2ccncc2)CC1 (stereo not drawn) [CC_H-201, 3-[[2-Chloro-5-(trifluoromethyl)-benzoyl]amino]-N-methyl-N-(1-pyridin-4-yl-piperidin-4-yl)-2,3-dihydro-1H-indene-5-carboxylic acid amide]
111 | Cc1ccc(F)c(C(=O)NC2CCc3ccc(C(=O)N(C)C4CCN(c5ccncc5)CC4)cc32)c1Cl (stereo not drawn) [CC_H-202, 3-[(2-Chloro-6-fluoro-3-methyl-benzoyl)amino]-N-methyl-N-(1-pyridin-4-yl-piperidin-4-yl)-2,3-dihydro-1H-indene-5-carboxylic acid amide]
111 | CN(C(=O)c1ccc2c(c1)C(NC(=O)c1cc(Cl)ccc1Cl)CC2)C1CCN(c2ccncc2)CC1 (stereo not drawn) [CC_H-203, 3-[(2,5-Dichloro-benzoyl)amino]-N-methyl-N-(1-pyridin-4-yl-piperidin-4-yl)-2,3-dihydro-1H-indene-5-carboxylic acid amide]
110 | CN(C(=O)c1ccc2c(c1)C(NC(=O)c1c(Cl)cccc1C(F)(F)F)CC2)C1CCN(c2ccncc2)CC1 (stereo not drawn) [CC_H-204, 3-[[2-Chloro-6-(trifluoromethyl)-benzoyl]amino]-N-methyl-N-(1-pyridin-4-yl-piperidin-4-yl)-2,3-dihydro-1H-indene-5-carboxylic acid amide]
98 | CN(C(=O)c1ccc2c(c1)C(NC(=O)C1CC1)CC2)C1CCN(c2ccncc2)CC1 (stereo not drawn) [CC_H-205, 3-(Cyclopropanecarbonylamino)-N-methyl-N-(1-pyridin-4-yl-piperidin-4-yl)-2,3-dihydro-1H-indene-5-carboxylic acid amide]
109 | CN(C(=O)c1ccc2c(c1)C(NC(=O)CC(C)(C)C)CC2)C1CCN(c2ccncc2)CC1 (stereo not drawn) [CC_H-206, 3-(3,3-Dimethyl-butanoylamino)-N-methyl-N-(1-pyridin-4-yl-piperidin-4-yl)-2,3-dihydro-1H-indene-5-carboxylic acid amide]
89 | COCC(=O)NC1CCc2ccc(C(=O)N(C)C3CCN(c4ccncc4)CC3)cc21 (stereo not drawn) [CC_H-207, 3-[(2-Methoxy-acetyl)amino]-N-methyl-N-(1-pyridin-4-yl-piperidin-4-yl)-2,3-dihydro-1H-indene-5-carboxylic acid amide]
111 | CN(C(=O)c1ccc2c(c1)C(N(C)C(=O)c1cc(F)ccc1Cl)CC2)C1CCN(c2ccncc2)CC1 (stereo not drawn) [CC_H-208, 3-[(2-Chloro-5-fluoro-benzoyl)-methyl-amino]-N-methyl-N-(1-pyridin-4-yl-piperidin-4-yl)-2,3-dihydro-1H-indene-5-carboxylic acid amide]
112 | Cc1ccc(F)c(C(=O)N(C)C2CCc3ccc(C(=O)N(C)C4CCN(c5ccncc5)CC4)cc32)c1Cl (stereo not drawn) [CC_H-209, 3-[(2-Chloro-6-fluoro-3-methyl-benzoyl)-methyl-amino]-N-methyl-N-(1-pyridin-4-yl-piperidin-4-yl)-2,3-dihydro-1H-indene-5-carboxylic acid amide]
112 | CN(C(=O)c1ccc2c(c1)C(N(C)C(=O)c1cc(Cl)ccc1Cl)CC2)C1CCN(c2ccncc2)CC1 (stereo not drawn) [CC_H-210, 3-[(2,5-Dichloro-benzoyl)-methyl-amino]-N-methyl-N-(1-pyridin-4-yl-piperidin-4-yl)-2,3-dihydro-1H-indene-5-carboxylic acid amide]
108 | CN(C(=O)c1ccc2c(c1)C(N(C)C(=O)C1CCCCC1)CC2)C1CCN(c2ccncc2)CC1 (stereo not drawn) [CC_H-211, 3-(Cyclohexanecarbonyl-methyl-amino)-N-methyl-N-(1-pyridin-4-yl-piperidin-4-yl)-2,3-dihydro-1H-indene-5-carboxylic acid amide]
